Data from patent US20250025473A1 (priority 2021, published 2025).
Structures can show the parent of a compound that is named as a salt.

What was measured:
panel of 393 kinases [1] = biological target: T1, panel of 393 kinases (Homo sapiens, UniProt Q13131); assay: biochemical; conditions: control compound
T1 construct: purchased Reaction Biology Corporation

panel of 393 kinases [2] = biological target: T2, panel of 393 kinases (Homo sapiens, UniProt P54646); assay: biochemical; conditions: control compound
T2 construct: purchased Reaction Biology Corporation

MDCK-MDR1 cells = conditions: 5 μM
[3] = tested on: phosphatidylserine (PtdS) and Akt; assay: Translocation of PtdS and Akt to the outer leaflet after HSV-2 (confocal, non-permeabilized); type: cell-based, human; conditions: HaCat, HSV-2(G)
PLSCR1 [4] = assay: PLSCR1 phosphorylation after HSV-2 (immunoprecipitation/Western); type: cell-based, human; conditions: 10 μM, HaCat, 30 minutes
PLSCR1 [5] = type: cell-based, monkey; conditions: Vero, 30 minutes; drugs 10 μM each
HaCat cells = assay: Cytotoxicity/viability, confluent HaCat cells; type: cell-based, human; conditions: 10 μM
Procedure: Results are presented as mean±SEM odu as a percentage of the DMSO control (n=2 independent experiments each conducted in duplicate for C and 1 experiment conducted in duplicate for D). Results in B-D were compared by ANOVA, *p<0.05, **p<0.01, ***p<0.001, ****p<0.0001).
Cell proliferation and viability were determined using the Cell Titer 96® Aqueous One Solution and optical density was determined using a SpectraMax® M5e Molecular Devices multidetection microplate reader. […] The cells were then fixed and stained for activated caspases (red) and SYTOX Green (for integrity of plasma membrane) by Image-iT™ LIVE red Poly Caspase Detection kit. Nuclei were stained with Hoechst. Images were acquired by laser confocal microscope ZeissLive/DuoScan equipped with oil immersion objectives 63×1.1 and captured in an optical slice of 0.37 μm with appropriate filters. Alternatively, immunoblots were prepared and probed with antibodies to cleaved PARP-1 or cleaved caspase 8.

[6] = Parallel artificial membrane permeability assay (PAMPA); type: in vitro ADME
panel of 393 kinases [7] = biological target: T3, panel of 393 kinases (Homo sapiens, UniProt Q96QT4); assay: biochemical; conditions: kinase TRPM7/CHAK1; control compound
T3 construct: purchased Reaction Biology Corporation

HSV-1 K26GFP = assay: HSV capsid entry, GFP+ cells by confocal imaging; conditions: HaCat, 4 h post-temperature shift; CIMSS 10 μM, anti-Akt 2 μg/ml, cycloheximide 10 μg/ml
panel of 393 kinases [8] = biological target: T4, panel of 393 kinases (Homo sapiens, UniProt Q15118); assay: biochemical; conditions: kinase PDK1/PDHK1; control compound
T4 construct: purchased Reaction Biology Corporation

panel of 393 kinases [9] = biological target: T5, panel of 393 kinases (Homo sapiens, UniProt Q15119); assay: biochemical; conditions: kinase PDK2/PDHK2; control compound
T5 construct: purchased Reaction Biology Corporation

panel of 393 kinases [10] = biological target: T6, panel of 393 kinases (Homo sapiens, UniProt Q16654); assay: biochemical; conditions: kinase PDK4/PDHK4; control compound
T6 construct: purchased Reaction Biology Corporation

panel of 393 kinases [11] = biological target: T7, panel of 393 kinases (Homo sapiens, UniProt Q15120); assay: biochemical; conditions: kinase PDK3/PDHK3; control compound
T7 construct: purchased Reaction Biology Corporation

[12] = tested on: VSV-S (VSV pseudotyped with SARS-CoV-2 spike protein); type: cell-based
panel of 393 kinases [13] = biological target: T8, panel of 393 kinases (Homo sapiens, UniProt Q9BQI3); assay: biochemical
T8 construct: purchased Reaction Biology Corporation
T8 sequence (Q9BQI3 whole entry): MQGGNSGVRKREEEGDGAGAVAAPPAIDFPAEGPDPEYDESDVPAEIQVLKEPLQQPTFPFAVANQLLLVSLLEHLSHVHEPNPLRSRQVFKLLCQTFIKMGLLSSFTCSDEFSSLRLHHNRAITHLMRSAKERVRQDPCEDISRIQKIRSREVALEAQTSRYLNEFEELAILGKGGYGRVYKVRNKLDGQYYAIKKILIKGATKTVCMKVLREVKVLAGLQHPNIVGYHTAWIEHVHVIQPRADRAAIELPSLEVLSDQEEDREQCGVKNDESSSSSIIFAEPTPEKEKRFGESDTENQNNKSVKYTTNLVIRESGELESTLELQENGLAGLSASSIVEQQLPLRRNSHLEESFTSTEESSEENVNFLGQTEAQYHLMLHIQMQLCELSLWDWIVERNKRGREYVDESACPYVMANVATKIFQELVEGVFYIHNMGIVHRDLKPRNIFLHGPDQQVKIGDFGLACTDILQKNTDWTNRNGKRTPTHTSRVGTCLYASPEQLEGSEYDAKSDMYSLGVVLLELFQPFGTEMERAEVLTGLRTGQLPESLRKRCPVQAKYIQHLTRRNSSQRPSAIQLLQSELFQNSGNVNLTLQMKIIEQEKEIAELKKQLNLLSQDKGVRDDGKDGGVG

T2 sequence (P54646 whole entry): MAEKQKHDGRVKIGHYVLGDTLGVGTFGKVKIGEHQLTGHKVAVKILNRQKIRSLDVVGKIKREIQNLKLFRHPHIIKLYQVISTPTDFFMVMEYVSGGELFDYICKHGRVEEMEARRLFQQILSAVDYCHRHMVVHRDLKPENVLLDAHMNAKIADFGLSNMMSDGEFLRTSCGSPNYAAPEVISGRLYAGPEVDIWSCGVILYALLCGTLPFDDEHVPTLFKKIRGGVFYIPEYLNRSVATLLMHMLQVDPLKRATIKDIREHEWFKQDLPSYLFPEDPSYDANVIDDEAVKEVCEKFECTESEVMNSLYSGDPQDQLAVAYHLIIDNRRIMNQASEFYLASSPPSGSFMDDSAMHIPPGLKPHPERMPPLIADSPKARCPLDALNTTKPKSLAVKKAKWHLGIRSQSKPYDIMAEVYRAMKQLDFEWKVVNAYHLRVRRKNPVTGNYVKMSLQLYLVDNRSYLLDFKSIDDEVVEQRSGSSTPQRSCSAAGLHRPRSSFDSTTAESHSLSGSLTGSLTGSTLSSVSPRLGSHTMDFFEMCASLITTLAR
T1 sequence (Q13131 whole entry): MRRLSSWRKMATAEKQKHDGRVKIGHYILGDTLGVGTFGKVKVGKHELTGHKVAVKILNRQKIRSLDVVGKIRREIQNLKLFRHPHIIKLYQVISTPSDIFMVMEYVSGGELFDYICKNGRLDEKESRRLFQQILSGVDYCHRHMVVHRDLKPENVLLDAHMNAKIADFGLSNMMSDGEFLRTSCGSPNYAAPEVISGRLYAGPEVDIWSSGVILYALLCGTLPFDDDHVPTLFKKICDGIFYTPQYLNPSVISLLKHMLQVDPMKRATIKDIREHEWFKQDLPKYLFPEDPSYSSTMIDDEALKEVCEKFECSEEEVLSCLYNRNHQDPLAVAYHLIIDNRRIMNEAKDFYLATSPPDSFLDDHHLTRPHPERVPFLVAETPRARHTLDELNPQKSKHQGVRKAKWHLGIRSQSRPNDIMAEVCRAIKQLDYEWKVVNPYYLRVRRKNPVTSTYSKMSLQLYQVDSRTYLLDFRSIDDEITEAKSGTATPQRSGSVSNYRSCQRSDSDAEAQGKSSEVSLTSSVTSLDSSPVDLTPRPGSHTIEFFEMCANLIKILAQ
T7 sequence (Q15120 whole entry): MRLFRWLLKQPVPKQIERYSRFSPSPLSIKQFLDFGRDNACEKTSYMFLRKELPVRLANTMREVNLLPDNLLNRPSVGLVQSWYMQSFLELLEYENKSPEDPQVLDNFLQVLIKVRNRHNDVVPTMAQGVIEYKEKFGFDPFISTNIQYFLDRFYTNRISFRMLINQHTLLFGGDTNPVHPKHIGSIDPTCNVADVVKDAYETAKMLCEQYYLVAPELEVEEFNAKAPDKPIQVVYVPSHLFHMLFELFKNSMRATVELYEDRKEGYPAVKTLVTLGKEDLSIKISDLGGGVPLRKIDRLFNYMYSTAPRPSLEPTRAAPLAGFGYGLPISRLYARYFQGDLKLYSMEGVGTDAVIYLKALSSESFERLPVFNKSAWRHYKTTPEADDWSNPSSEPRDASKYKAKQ
T3 sequence (Q96QT4 whole entry): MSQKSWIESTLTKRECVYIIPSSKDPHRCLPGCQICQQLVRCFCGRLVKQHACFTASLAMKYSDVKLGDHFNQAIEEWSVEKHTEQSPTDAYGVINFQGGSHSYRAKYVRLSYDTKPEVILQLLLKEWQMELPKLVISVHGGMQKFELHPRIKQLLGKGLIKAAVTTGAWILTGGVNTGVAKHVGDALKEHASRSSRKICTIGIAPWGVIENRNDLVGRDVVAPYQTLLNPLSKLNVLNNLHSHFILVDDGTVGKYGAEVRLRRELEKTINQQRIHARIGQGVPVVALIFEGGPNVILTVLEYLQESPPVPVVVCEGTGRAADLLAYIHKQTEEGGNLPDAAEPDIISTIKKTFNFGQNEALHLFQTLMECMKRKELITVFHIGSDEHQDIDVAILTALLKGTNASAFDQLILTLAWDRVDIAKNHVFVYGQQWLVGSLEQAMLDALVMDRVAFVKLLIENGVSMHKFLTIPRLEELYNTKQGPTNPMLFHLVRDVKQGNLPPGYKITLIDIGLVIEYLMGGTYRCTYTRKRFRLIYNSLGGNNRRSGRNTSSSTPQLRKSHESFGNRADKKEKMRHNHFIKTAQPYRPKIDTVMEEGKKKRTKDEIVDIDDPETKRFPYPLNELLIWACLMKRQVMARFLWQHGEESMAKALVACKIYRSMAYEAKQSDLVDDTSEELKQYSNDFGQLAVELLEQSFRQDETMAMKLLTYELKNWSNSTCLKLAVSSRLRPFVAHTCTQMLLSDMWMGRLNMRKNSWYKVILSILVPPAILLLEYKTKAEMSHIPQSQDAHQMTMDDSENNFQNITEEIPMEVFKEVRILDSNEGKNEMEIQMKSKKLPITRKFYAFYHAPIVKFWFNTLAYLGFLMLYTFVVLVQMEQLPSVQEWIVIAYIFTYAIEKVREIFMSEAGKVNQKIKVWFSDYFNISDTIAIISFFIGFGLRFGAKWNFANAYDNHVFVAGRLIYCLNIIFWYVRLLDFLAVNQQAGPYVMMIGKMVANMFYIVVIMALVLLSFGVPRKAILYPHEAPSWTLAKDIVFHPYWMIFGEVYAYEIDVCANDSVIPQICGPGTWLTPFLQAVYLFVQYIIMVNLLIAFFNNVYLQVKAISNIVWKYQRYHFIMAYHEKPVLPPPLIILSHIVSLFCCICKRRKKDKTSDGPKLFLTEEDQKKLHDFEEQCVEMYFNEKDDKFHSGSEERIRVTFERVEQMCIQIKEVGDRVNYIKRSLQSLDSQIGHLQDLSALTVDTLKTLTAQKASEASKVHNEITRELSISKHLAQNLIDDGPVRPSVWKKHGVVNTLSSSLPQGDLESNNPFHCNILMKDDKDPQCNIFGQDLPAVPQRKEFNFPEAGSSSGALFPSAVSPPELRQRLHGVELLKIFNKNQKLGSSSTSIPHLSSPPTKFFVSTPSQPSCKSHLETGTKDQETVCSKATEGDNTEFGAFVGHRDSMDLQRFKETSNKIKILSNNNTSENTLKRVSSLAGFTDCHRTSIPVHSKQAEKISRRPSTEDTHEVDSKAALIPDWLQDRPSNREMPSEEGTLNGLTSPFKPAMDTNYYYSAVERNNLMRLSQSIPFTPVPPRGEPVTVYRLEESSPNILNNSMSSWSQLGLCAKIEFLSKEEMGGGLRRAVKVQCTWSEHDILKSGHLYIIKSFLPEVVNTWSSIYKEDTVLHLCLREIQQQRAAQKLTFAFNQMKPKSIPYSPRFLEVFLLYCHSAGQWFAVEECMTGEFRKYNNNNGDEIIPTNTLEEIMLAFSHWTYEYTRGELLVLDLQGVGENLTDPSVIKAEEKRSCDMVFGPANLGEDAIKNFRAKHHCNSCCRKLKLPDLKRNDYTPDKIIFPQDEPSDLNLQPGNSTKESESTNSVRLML
T4 sequence (Q15118 29-436): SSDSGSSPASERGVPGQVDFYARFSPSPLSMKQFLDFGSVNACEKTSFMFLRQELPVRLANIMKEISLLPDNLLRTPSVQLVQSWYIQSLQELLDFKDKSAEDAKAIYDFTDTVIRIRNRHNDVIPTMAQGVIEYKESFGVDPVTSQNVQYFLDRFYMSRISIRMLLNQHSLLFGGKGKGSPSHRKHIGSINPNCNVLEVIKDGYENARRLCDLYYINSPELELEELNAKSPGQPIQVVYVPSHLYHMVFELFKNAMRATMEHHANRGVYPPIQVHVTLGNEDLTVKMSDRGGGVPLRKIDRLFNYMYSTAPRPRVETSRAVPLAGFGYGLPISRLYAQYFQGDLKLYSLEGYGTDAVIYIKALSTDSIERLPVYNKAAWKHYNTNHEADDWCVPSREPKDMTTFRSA
T6 sequence (Q16654 whole entry): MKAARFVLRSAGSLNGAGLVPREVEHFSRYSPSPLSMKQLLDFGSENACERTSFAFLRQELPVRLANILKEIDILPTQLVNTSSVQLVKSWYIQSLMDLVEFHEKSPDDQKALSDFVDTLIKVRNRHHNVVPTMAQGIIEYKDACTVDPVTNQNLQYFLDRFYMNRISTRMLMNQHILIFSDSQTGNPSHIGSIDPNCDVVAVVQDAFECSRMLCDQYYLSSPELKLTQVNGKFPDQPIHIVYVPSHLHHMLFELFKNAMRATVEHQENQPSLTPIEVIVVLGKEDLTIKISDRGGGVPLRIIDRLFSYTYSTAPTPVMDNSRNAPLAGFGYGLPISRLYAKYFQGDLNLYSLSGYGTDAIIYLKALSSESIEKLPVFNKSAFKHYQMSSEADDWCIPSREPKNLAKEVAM

Ro-31-8220
IC50 (panel of 393 kinases [1]; kinase AMPK(A1/B1/G1)): 66.8 nM
IC50 (panel of 393 kinases [1]; kinase AMPK(A1/B1/G2)): 76.8 nM
IC50 (panel of 393 kinases [1]; kinase AMPK(A1/B1/G3)): 179 nM
IC50 (panel of 393 kinases [1]; kinase AMPK(A1/B2/G1)): 116 nM
IC50 (panel of 393 kinases [2]; kinase AMPK (A2/B1/G3)): 296 nM
IC50 (panel of 393 kinases [2]; kinase AMPK(A2/B1/G1)): 212 nM
IC50 (panel of 393 kinases [2]; kinase AMPK(A2/B2/G1)): 97.8 nM
IC50 (panel of 393 kinases [2]; kinase AMPK(A2/B2/G2)): 100 nM
IC50 (panel of 393 kinases [2]; kinase AMPK(A2/B2/G3)): 186 nM

C[C@H]1O[C@@H](O[C@H]2[C@@H](O)C[C@H](O[C@H]3[C@@H](O)C[C@H](O[C@H]4CC[C@@]5(C)[C@H](CC[C@@H]6[C@@H]5C[C@@H](O)[C@]5(C)[C@@H](C7=CC(=O)OC7)CC[C@]65O)C4)O[C@@H]3C)O[C@@H]2C)C[C@H](O)[C@@H]1O [Digoxin]
Recover %, MDCK Transport (MDCK-MDR1 cells): 96%

CN[C@@H]1C[C@H]2O[C@@](C)([C@@H]1OC)n1c3ccccc3c3c4c(c5c6ccccc6n2c5c31)C(=O)NC4 [Staurosporine, (9S,10R,11R,13R)-2,3,10,11,12,13-hexahydro-10-methoxy-9-methyl-11-(methylamino)-9,13-epoxy-1H,9H-diindolo[1,2,3-gh:3′,2′,1′-lm]pyrrolo[3,4-j][1,7]benzodiazonin-1-one, reference compound]
translocation of PtdS and Akt to the outer leaflet of the plasma membrane ([3]; 10 μM): inhibited
phosphorylation of PLSCR1 after HSV-2 (PLSCR1 [4]): inhibited
phosphorylation of PLSCR1 after VSV-S (PLSCR1 [5]): inhibited
cytotoxicity (HaCat cells; confluent HaCat, 72 and 120 hours of exposure): completely cytotoxic
cytotoxicity (HaCat cells; fully confluent HaCat cells, up to 120 h): cytotoxic within 24 h

CC(C)NCC(O)COc1cccc2ccccc12 (stereo not drawn) [Propranolol]
Recover %, PAMPA ([6]; 100 μM): 85%
Papp, PAMPA ([6]; 100 μM in PBS pH 7.4, 5 hours, room temperature): 8.991 ×10⁻⁶ cm/s
Recover %, MDCK Transport (MDCK-MDR1 cells): 93%

Apyrase
detection of PtdS or PLSCR1 at the outer leaflet ([3]; 10 U/ml): no discernible effect

CCCCCCCCCCCCCCCCn1cc[n+](Cc2ccccc2)c1C [NH125]
IC50 (panel of 393 kinases [7]): 23400 nM

C[C@@H]1C[C@@H]([C@H](O)CC2CC(=O)NC(=O)C2)C(=O)[C@@H](C)C1 [cycloheximide, reference compound]
percentage of GFP+ cells (HSV-1 K26GFP): significantly reduced

O=C1Nc2ccc(I)cc2/C1=C/c1cc(Br)c(O)c(Br)c1 [GW5074]
IC50 (panel of 393 kinases [8]): 8630 nM
IC50 (panel of 393 kinases [9]): 5050 nM
IC50 (panel of 393 kinases [10]): 1890 nM
IC50 (panel of 393 kinases [11]): 2570 nM

CN(C)C(=O)COC(=O)Cc1ccc(OC(=O)c2ccc(NC(=N)N)cc2)cc1 [camostat mesylate, reference compound]
VSV-S infection (plaques or viral yields) [12]: inhibited

Cn1cc(-c2ccc3c(c2)CCN3C(=O)Cc2cccc(C(F)(F)F)c2)c2c(N)ncnc21 [GSK-2606414]
IC50 (panel of 393 kinases [13]): 96.2 nM
